Measured values taken from patent publication US7429238B2, “Systems and methods for the generation of crystalline polymorphs” (priority 2001, dated 2008).

What was measured:
[1] = following a single oral dose, average; cited from earlier work
[2] = rat, in vivo; cited from earlier work
[3] = Differential scanning calorimetry of the new carbamazepine polymorph; format: physicochemical; conditions: scan rate of 10° C./minute
[4] = Infrared of single crystals versus KBr pellets (phase transformation under pressure); format: physicochemical; conditions: KBr pellets produced at 10,000 psi vs infrared microscopy of single crystals
From the text: The corresponding peaks in the new polymorph are found at 3474, 3149, 1674, 1394, 773, and 765 cm^−1. […] Significant differences in the IR spectra of two different polymorphs provide a fast, reliable method of polymorph characterization despite the fact that a hydrogen-bonded dimer is observed in the crystal structure of both polymorphs. […] Therefore, it is contemplated that this new form has good shelf life (kinetic trapping of the unstable form).

[5] = cited from earlier work
[6] = room temperature; cited from earlier work

SMILES: NC(=O)N1c2ccccc2C=Cc2ccccc21 [carbamazepine]
- elimination half-life of unchanged carbamazepine in the plasma [1]: approximately 36 hours
- long-term toxicity finding [2]: potential carcinogenic risk

SMILES: NC(=O)N1c2ccccc2C=Cc2ccccc21 [new polymorph, carbamazepine]
- phase transitions by differential scanning calorimetry [3]: absence of phase transitions below 184 °C
- phase transformation under pressure [4]: not taking place

SMILES: CC(=O)Nc1ccc(O)cc1 [orthorhombic polymorph, 4-acetamidophenol]
- solubility relative to the monoclinic form [5]: more soluble

SMILES: NC(=O)N1c2ccccc2C=Cc2ccccc21 [trigonal form, carbamazepine]
- solid form stability in solvent [6]: undergoes solvent-mediated conversion to the monoclinic crystal
